Columns and labels:
E. coli (ATCC 25922) = test: Radial diffusion (inhibition zone) assay; format: cell-based
Procedure: (§1) Antimicrobial assays. E. coli (ATCC 25922), Pseudomonas aeruginosa (ATCC 8427), Salmonella typhimurium (ATCC 13311), Proteus vulgaris (ATCC 8427), Staphylococcus epidermidis (ATCC 12228), and MRSA (ATCC 33591) isolates were maintained on trypticase soy broth (TSB) agar plates. Individual colonies were selected and cultured overnight in TSB, subcultured once at 1:50 in fresh TSB, and then grown to stationary phase for use in all experiments. The radial diffusion assay was performed in 0.5% agarose and 0.75% tryptone brought to ebullition and cooled to 43° C., and then mixed with […] of bacterial suspension and poured into a 10 cm Petri dish. A series of small wells (diameter, 3 mm) were punched in the plate after the agarose solidified. Two microliters of test samples were applied in each well. Plates were incubated at 37° C. overnight to allow visible growth of bacteria. Antibacterial activity was indicated by the clear zone (no bacterial growth) around the well.
(§2) Antimicrobial activity of recombinant cathelin-like protein. Recombinant cathelicidins were tested for antimicrobial activity using a standard radial diffusion assay. Different concentrations of the cathelin-like protein were loaded into wells on assay plates containing Gram-positive MRSA, S. epidermidis, and strains of the Gram-negative bacterial species E. coli, S. enteritidis, P. vulgaris, and P. aeruginosa. […] Similarly, cathelin-like protein inhibited growth of S. epidermidis ([…]) but not S. enteritidis or P. vulgaris.

S. enteritidis = test: Radial diffusion (inhibition zone) assay; format: cell-based
Procedure: as §1, §2

[1] = system: Staphylococcus epidermidis (ATCC 12228); test: Radial diffusion (inhibition zone) assay; format: cell-based; settings: S. epidermidis (Gram-positive)
Procedure: as §1, §2

[2] = system: Pseudomonas aeruginosa (ATCC 8427); test: Radial diffusion (inhibition zone) assay; format: cell-based; settings: P. aeruginosa
Procedure: as §1, §2

MRSA (ATCC 33591) = test: Radial diffusion (inhibition zone) assay; format: cell-based, Staphylococcus aureus; settings: MRSA (Gram-positive)
Procedure: (§3) FIGS. 3A–C show Growth inhibition of MRSA, E. coli, and P. aeruginosa by cathelin-like protein. (a) Inhibition zone ssay on tryptone/agarose plates with MRSA. Clear circles show lack of bacterial growth. Lanes 1, 3, 5, bottom row: cathelin-like protein at […], 16 μM, respectively. Lane 2, top row:[…] of His-tagged cathelin-like protein before cleavage. Lane 4, top: enterokinase enzyme alone. All assays were performed in duplicate and repeated three times. (b), (c) CFU assay: growth inhibition of (b) MRSA and (c) E. coli, cultured in 10 mM phosphate and 1% TSB (pH 7.4) and then supplemented with different concentrations of human cathelin-like protein.
as §1, with “A series of small wells (diameter, 3 mm) were punched in the plate after the agarose solidified. Two microliters of test samples were applied in each well. Plates were incubated at 37° C. overnight to allow visible growth of bacteria. Antibacterial activity was indicated by the clear zone (no bacterial growth) around the well.” left out

MRSA = test: Colony-forming assay (CFU), liquid phase; format: cell-based, Staphylococcus aureus; settings: 10 mM phosphate, 1% TSB, pH 7.4
Procedure: as §3
(§4) The colony-forming assay (CFU) was performed. Bacterial cultures (E. coli or MRSA) were collected at the logarithmic phase of growth in TSB, washed twice with phosphate-buffered saline, pH 7.4, and diluted to 104 CFU per ml in 10 mM phosphate buffer, pH 7.4, Na2HPO4/NaH2PO4-1% TSB (g per 1). Forty-five microliters of bacterial suspension were mixed with […] of H2O (control) or with […] of different concentrations of cathelin-like proteins, and the mixture was incubated at 37° C. Every 30 min, a […] aliquot of the reaction mixture was plated directly onto a TSB agar plate and then incubated at 37° C. overnight for enumeration of CFU. Data are reported as growth index=final CFU/CFU in initial inoculum. […]

E. coli = test: Colony-forming assay (CFU), liquid phase; format: cell-based; design: unit of the concentration uncertain; settings: 3 (unit uncertain), 10 mM phosphate, 1% TSB, pH 7.4
Procedure: as §3, §4

Row | Substance | growth inhibition (E. coli (ATCC 25922)) | growth inhibition (S. enteritidis) | growth inhibition [1] | growth inhibition [2] | growth inhibition (MRSA (ATCC 33591)) | effect on growth (CFU) (MRSA) | effect on growth (CFU) (E. coli)
1 | CRAMP [reference compound] | highly active | highly active | inactive | highly active | inactive |  | 
2 | LL-37: C-terminal 37 amino acid mature antimicrobial peptide of human hCAP18 (LLGDFFRKSKEKIGKEFKRIVQRIKDFLRNLVPRTES) [reference compound] | highly active | highly active | inactive | highly active | inactive | no effect | bactericidal

— US7173007B1, “Therapy for microbial infections” (The Regents of the University of California, priority 2003, dated 2007)
